Assay results: patent publication US20090018134A1, “Compounds - 945” (AstraZeneca AB, priority 2007, published 2009)

target: T1, mTOR (Homo sapiens, UniProt P42345); experiment: In Vitro mTOR Kinase Assay (Echo), Test (a)(ii); format: biochemical; conditions: table of enzyme assay Test (a)(ii); read-out: Test (a)(ii) IC50
T1 construct: FLAG; made in house
In short: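 Enzyme: HEK293-expressed, FLAG-purified mTOR C-terminal fragment (aa 1362-2549). Rxn 2 h RT with biotinylated peptide, stopped with EDTA 50 mM/BSA/Tris pH 7.4. Detection: T389 phospho-antibody AlphaScreen, 680 nm excitation. IC50.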

T1 sequence (P42345 1362-2549): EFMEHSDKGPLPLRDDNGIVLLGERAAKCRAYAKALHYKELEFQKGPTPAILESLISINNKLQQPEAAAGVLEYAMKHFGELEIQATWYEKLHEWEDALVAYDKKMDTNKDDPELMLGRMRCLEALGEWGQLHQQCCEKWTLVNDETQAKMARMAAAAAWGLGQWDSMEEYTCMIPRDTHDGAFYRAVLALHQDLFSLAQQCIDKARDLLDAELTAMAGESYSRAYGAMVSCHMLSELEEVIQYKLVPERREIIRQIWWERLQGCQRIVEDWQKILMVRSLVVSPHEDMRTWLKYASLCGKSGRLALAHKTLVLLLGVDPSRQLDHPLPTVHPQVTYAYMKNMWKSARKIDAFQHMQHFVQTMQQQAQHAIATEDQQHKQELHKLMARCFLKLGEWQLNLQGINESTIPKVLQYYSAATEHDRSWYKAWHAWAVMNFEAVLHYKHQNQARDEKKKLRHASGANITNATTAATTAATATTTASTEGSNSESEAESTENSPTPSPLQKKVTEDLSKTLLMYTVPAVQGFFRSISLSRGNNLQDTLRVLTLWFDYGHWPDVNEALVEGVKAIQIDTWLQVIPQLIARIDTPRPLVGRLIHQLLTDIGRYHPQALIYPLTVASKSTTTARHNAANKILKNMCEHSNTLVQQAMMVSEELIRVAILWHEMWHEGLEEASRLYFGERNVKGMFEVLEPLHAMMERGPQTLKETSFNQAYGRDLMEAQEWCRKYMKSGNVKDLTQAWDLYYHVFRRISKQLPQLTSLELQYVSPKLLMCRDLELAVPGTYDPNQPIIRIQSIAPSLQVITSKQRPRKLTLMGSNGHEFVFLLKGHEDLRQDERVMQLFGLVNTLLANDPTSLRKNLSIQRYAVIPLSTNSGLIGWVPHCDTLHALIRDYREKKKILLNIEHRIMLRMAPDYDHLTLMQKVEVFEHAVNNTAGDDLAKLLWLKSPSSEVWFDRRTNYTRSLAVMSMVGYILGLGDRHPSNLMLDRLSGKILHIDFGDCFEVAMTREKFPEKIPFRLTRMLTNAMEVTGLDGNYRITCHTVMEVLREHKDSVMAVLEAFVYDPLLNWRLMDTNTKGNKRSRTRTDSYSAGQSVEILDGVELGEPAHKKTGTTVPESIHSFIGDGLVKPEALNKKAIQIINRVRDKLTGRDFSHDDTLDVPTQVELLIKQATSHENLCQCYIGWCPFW

Q: With CC(C)CNC(=O)Nc1ccc(-c2nc(N3CCOC[C@@H]3C)cc(C3(S(=O)(=O)CCCO)CC3)n2)cc1 [Example 31d, 1-[4-[4-[1-(3-hydroxypropylsulfonyl)cyclopropyl]-6-[(3S)-3-methylmorpholin-4-yl]pyrimidin-2-yl]phenyl]-3-(2-methylpropyl)urea] as the molecule, how does the IC50 read?
A: The IC50 was 9.55 nM.

Q: With CCNC(=O)Nc1ccc(-c2nc(N3CCOC[C@@H]3C)cc(C3(S(=O)(=O)CCCO)CC3)n2)cc1 [Example 31e, 1-ethyl-3-[4-[4-[1-(3-hydroxypropylsulfonyl)cyclopropyl]-6-[(3S)-3-methylmorpholin-4-yl]pyrimidin-2-yl]phenyl]urea] as the molecule, how does the IC50 read?
A: The IC50 was 1.07 nM.

Q: How did the IC50 turn out when C[C@H]1COCCN1c1cc(C2(S(=O)(=O)CCCO)CC2)nc(-c2ccc(NC(=O)NCCO)cc2)n1 [Example 31f, 3-(2-hydroxyethyl)-1-[4-[4-[1-(3-hydroxypropylsulfonyl)cyclopropyl]-6-[(3S)-3-methylmorpholin-4-yl]pyrimidin-2-yl]phenyl]urea] was run?
A: The IC50 was 1.6 nM.

Q: CNC(=O)Nc1ccc(-c2nc(N3CCOC[C@@H]3C)cc(C3(S(=O)(=O)CCCO)CC3)n2)cc1 [Example 31g, 1-[4-[4-[1-(3-hydroxypropylsulfonyl)cyclopropyl]-6-[(3S)-3-methylmorpholin-4-yl]pyrimidin-2-yl]phenyl]-3-methylurea] was tested. Which IC50 did it give?
A: Its IC50 is 3.23 nM.

Q: C[C@H]1COCCN1c1cc(C2(S(=O)(=O)CCCO)CC2)nc(-c2ccc(NC(=O)Nc3ccc(C(F)(F)F)cc3)cc2)n1 [Example 31h, 1-[4-[4-[1-(3-hydroxypropylsulfonyl)cyclopropyl]-6-[(3S)-3-methylmorpholin-4-yl]pyrimidin-2-yl]phenyl]-3-[4-(trifluoromethyl)phenyl]urea] was tested. Which IC50 did it give?
A: Its IC50 is 0.209 nM.

Q: C[C@H]1COCCN1c1cc(C2(S(=O)(=O)CCCO)CC2)nc(-c2ccc(NC(=O)NCCCO)cc2)n1 [Example 31i, 3-(3-hydroxypropyl)-1-[4-[4-[1-(3-hydroxypropylsulfonyl)cyclopropyl]-6-[(3S)-3-methylmorpholin-4-yl]pyrimidin-2-yl]phenyl]urea] was tested. Which IC50 did it give?
A: The IC50 was 3.26 nM.

Q: For C[C@H]1COCCN1c1cc(C2(S(=O)(=O)CCCO)CC2)nc(-c2ccc(NC(=O)Nc3cnn(C)c3)cc2)n1 [Example 31j, 1-[4-[4-[1-(3-hydroxypropylsulfonyl)cyclopropyl]-6-[(3S)-3-methylmorpholin-4-yl]pyrimidin-2-yl]phenyl]-3-(1-methylpyrazol-4-yl)urea], which IC50 is on record?
A: Its IC50 is 1.03 nM.

Q: Which IC50 does the source give for CCCNC(=O)Nc1ccc(-c2nc(N3CCOC[C@@H]3C)cc(C3(S(=O)(=O)CCCO)CC3)n2)cc1 [Example 31k, 3-[4-[4-[1-(3-hydroxypropylsulfonyl)cyclopropyl]-6-[(3S)-3-methylmorpholin-4-yl]pyrimidin-2-yl]phenyl]-1-propylurea] here?
A: The IC50 was 1.91 nM.

Q: For C[C@H]1COCCN1c1cc(C2(S(=O)(=O)CCCO)CC2)nc(-c2ccc(NC(=O)NCCN(C)C)cc2)n1 [Example 31l, 3-(2-dimethylaminoethyl)-1-[4-[4-[1-(3-hydroxypropylsulfonyl)cyclopropyl]-6-[(3S)-3-methylmorpholin-4-yl]pyrimidin-2-yl]phenyl]urea], which IC50 is on record?
A: Its IC50 is 214 nM.

Q: How did the IC50 turn out when C[C@H]1COCCN1c1cc(C2(S(=O)(=O)CCCO)CC2)nc(-c2ccc(NC(=O)NC(C)(C)CO)cc2)n1 [Example 31m, 3-(1-hydroxy-2-methylpropan-2-yl)-1-[4-[4-[1-(3-hydroxypropylsulfonyl)cyclopropyl]-6-[(3S)-3-methylmorpholin-4-yl]pyrimidin-2-yl]phenyl]urea] was run?
A: Its IC50 is 5.91 nM.

Q: CNC(=O)Nc1ccc(-c2nc(N3CCOCC3)cc(C3(C(=O)N(C)C)CC3)n2)cc1 [Example 32, N,N-Dimethyl-1-[2-[4-(methylcarbamoylamino)phenyl]-6-morpholin-4-ylpyrimidin-4-yl]cyclopropane-1-carboxamide] was tested. Which IC50 did it give?
A: The IC50 was 3.15 nM.

Q: For CNC(=O)Nc1ccc(-c2nc(N3CCOCC3)cc(C3(C(=O)N4CCOC[C@@H]4C)CC3)n2)cc1 [Example 32a, 3-methyl-1-[4-[4-[1-[(3S)-3-methylmorpholine-4-carbonyl]cyclopropyl]-6-morpholin-4-ylpyrimidin-2-yl]phenyl]urea], which IC50 is on record?
A: The IC50 was 42.5 nM.

Q: With CNC(=O)Nc1ccc(-c2nc(N3CCOCC3)cc(C3(C(=O)NC4CC4)CC3)n2)cc1 [Example 32b, N-cyclopropyl-1-[2-[4-(methylcarbamoylamino)phenyl]-6-morpholin-4-ylpyrimidin-4-yl]cyclopropane-1-carboxamide] as the molecule, how does the IC50 read?
A: Its IC50 is 8.29 nM.

Q: With CNC(=O)Nc1ccc(-c2nc(N3CCOCC3)cc(C3(C(=O)N(C)C4CC4)CC3)n2)cc1 [Example 32c, N-cyclopropyl-N-methyl-1-[2-[4-(methylcarbamoylamino)phenyl]-6-morpholin-4-ylpyrimidin-4-yl]cyclopropane-1-carboxamide] as the molecule, how does the IC50 read?
A: Its IC50 is 2.88 nM.

Q: CNC(=O)Nc1ccc(-c2nc(N3CCOCC3)cc(C3(C(=O)N4CCN(C)CC4)CC3)n2)cc1 [Example 32d, 3-methyl-1-[4-[4-[1-(4-methylpiperazine-1-carbonyl)cyclopropyl]-6-morpholin-4-ylpyrimidin-2-yl]phenyl]urea] was tested. Which IC50 did it give?
A: Its IC50 is 13.1 nM.

Q: With CN(C)C(=O)C1(c2cc(N3CCOCC3)nc(-c3ccc(NC(=O)NC4CC4)cc3)n2)CC1 [Example 33, 1-[2-[4-(Cyclopropylcarbamoylamino)phenyl]-6-morpholin-4-ylpyrimidin-4-yl]-N,N-dimethylcyclopropane-1-carboxamide] as the molecule, how does the IC50 read?
A: Its IC50 is 9.29 nM.

Q: With C[C@H]1COCCN1C(=O)C1(c2cc(N3CCOCC3)nc(-c3ccc(NC(=O)NC4CC4)cc3)n2)CC1 [Example 33a, 3-cyclopropyl-1-[4-[4-[1-[(3S)-3-methylmorpholine-4-carbonyl]cyclopropyl]-6-morpholin-4-ylpyrimidin-2-yl]phenyl]urea] as the molecule, how does the IC50 read?
A: The IC50 was 58.4 nM.

Q: With O=C(Nc1ccc(-c2nc(N3CCOCC3)cc(C3(C(=O)NC4CC4)CC3)n2)cc1)NC1CC1 [Example 33b, N-cyclopropyl-1-[2-[4-(cyclopropylcarbamoylamino)phe-nyl]-6-morpholin-4-ylpyrimidin-4-yl]cyclopropane-1-carboxamide] as the molecule, how does the IC50 read?
A: Its IC50 is 12 nM.

Q: CN(C(=O)C1(c2cc(N3CCOCC3)nc(-c3ccc(NC(=O)NC4CC4)cc3)n2)CC1)C1CC1 [Example 33c, N-cyclopropyl-1-[2-[4-(cyclopropylcarbamoylamino)phe-nyl]-6-morpholin-4-ylpyrimidin-4-yl]-N-methylcyclopropane-1-carboxamide] was tested. Which IC50 did it give?
A: The IC50 was 2.58 nM.

Q: How did the IC50 turn out when CN1CCN(C(=O)C2(c3cc(N4CCOCC4)nc(-c4ccc(NC(=O)NC5CC5)cc4)n3)CC2)CC1 [Example 33d, 3-cyclopropyl-1-[4-[4-[1-(4-methylpiperazine-1-carbonyl)cyclopropyl]-6-morpholin-4-ylpyrimidin-2-yl]phenyl]urea] was run?
A: Its IC50 is 133 nM.

Q: For CN(C)C(=O)C1(c2cc(N3CCOCC3)nc(-c3ccc(NC(=O)NCCO)cc3)n2)CC1 [Example 34, 1-[2-[4-(2-Hydroxyethylcarbamoylamino)phenyl]-6-morpholin-4-ylpyrimidin-4-yl]-N,N-dimethylcyclopropane-1-carboxamide], which IC50 is on record?
A: Its IC50 is 4.05 nM.

Q: How did the IC50 turn out when C[C@H]1COCCN1C(=O)C1(c2cc(N3CCOCC3)nc(-c3ccc(NC(=O)NCCO)cc3)n2)CC1 [Example 34a, 3-(2-hydroxyethyl)-1-[4-[4-[1-[(3S)-3-methylmorpholine-4-carbonyl]cyclopropyl]-6-morpholin-4-ylpyrimidin-2-yl]phenyl]urea] was run?
A: Its IC50 is 38.7 nM.

Q: O=C(NCCO)Nc1ccc(-c2nc(N3CCOCC3)cc(C3(C(=O)NC4CC4)CC3)n2)cc1 [Example 34b, N-cyclopropyl-1-[2-[4-(2-hydroxyethylcarbamoylamino)phe-nyl]-6-morpholin-4-ylpyrimidin-4-yl]cyclopropane-1-carboxamide] was tested. Which IC50 did it give?
A: Its IC50 is 10.9 nM.

Q: For CN(C(=O)C1(c2cc(N3CCOCC3)nc(-c3ccc(NC(=O)NCCO)cc3)n2)CC1)C1CC1 [Example 34c, N-cyclopropyl-1-[2-[4-(2-hydroxyethylcarbamoylamino)phe-nyl]-6-morpholin-4-ylpyrimidin-4-yl]-N-methylcyclopropane-1-carboxamide], which IC50 is on record?
A: The IC50 was 3.45 nM.

Q: CN1CCN(C(=O)C2(c3cc(N4CCOCC4)nc(-c4ccc(NC(=O)NCCO)cc4)n3)CC2)CC1 [Example 34d, 3-(2-hydroxyethyl)-1-[4-[4-[1-(4-methylpiperazine-1-carbonyl)cyclopropyl]-6-morpholin-4-ylpyrimidin-2-yl]phenyl]urea] was tested. Which IC50 did it give?
A: The IC50 was 86.3 nM.

Q: How did the IC50 turn out when CNC(=S)Nc1ccc(-c2nc(N3CCOC[C@@H]3C)cc(C3(S(C)(=O)=O)CC3)n2)cc1 [Example 35, 3-Methyl-1-[4-[4-[(3S)-3-methylmorpholin-4-yl]-6-(1-methylsulfonylcyclopropyl)pyrimidin-2-yl]phenyl]thiourea] was run?
A: The IC50 was 5.31 nM.

Q: For CCNC(=S)Nc1ccc(-c2nc(N3CCOC[C@@H]3C)cc(C3(S(C)(=O)=O)CC3)n2)cc1 [Example 35a, 3-ethyl-1-[4-[4-[(3S)-3-methylmorpholin-4-yl]-6-(1-methylsulfonylcyclopropyl)pyrimidin-2-yl]phenyl]thiourea], which IC50 is on record?
A: Its IC50 is 5.52 nM.

Q: With C[C@H]1COCCN1c1cc(C2(S(C)(=O)=O)CC2)nc(-c2ccc(NC(=S)NCCO)cc2)n1 [Example 35b, 3-(2-hydroxyethyl)-1-[4-[4-[(3S)-3-methylmorpholin-4-yl]-6-(1-methylsulfonylcyclopropyl)pyrimidin-2-yl]phenyl]thiourea] as the molecule, how does the IC50 read?
A: Its IC50 is 0.577 nM.

Q: C[C@H]1COCCN1c1cc(C2(S(C)(=O)=O)CC2)nc(-c2ccc(NC(=S)NCCN(C)C)cc2)n1 [Example 35c, 3-(2-dimethylaminoethyl)-1-[4-[4-[(3S)-3-methylmorpholin-4-yl]-6-(1-methylsulfonylcyclopropyl)pyrimidin-2-yl]phenyl]thiourea] was tested. Which IC50 did it give?
A: The IC50 was 108 nM.

Q: For C[C@H]1COCCN1c1cc(C2(S(C)(=O)=O)CC2)nc(-c2ccc(NC(=S)NC3CC3)cc2)n1 [Example 35d, 3-cyclopropyl-1-[4-[4-[(3S)-3-methylmorpholin-4-yl]-6-(1-methylsulfonylcyclopropyl)pyrimidin-2-yl]phenyl]thiourea], which IC50 is on record?
A: Its IC50 is 4.11 nM.
